Assay results published in BindingDB's records for doi:10.1016/j.bmcl.2016.12.066 (China Pharmaceutical University, 2017).
pIC50: −log10 of the molar value.

What follows are compounds tested against T1, Tissue factor (Homo sapiens, UniProt P13726) (assay: ChEBML_1654816).
Experimental: (§1) Inhibition of LPS-induced tissue factor procoagulant activity in human THP1 cells preincubated for 1 hr followed by LPS addition measured after 5 hrs using factor 10a chromogenic substrate in presence of prothrombin complex

T1 sequence (P13726 whole entry): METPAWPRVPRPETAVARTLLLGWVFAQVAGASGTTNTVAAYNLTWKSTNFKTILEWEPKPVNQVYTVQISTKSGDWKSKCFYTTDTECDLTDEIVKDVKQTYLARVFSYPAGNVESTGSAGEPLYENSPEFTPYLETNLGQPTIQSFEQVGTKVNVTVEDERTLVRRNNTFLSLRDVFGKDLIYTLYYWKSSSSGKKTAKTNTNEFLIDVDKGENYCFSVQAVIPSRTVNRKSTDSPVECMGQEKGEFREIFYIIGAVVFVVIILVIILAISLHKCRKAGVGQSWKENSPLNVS

pIC50	Structure (SMILES)
9.10	CC1(C)CC[C@]2(C(=O)O[C@@H]3O[C@H](CO)[C@@H](O)[C@H](O)[C@H]3O)[C@H](O)C[C@]3(C)C(=CC[C@@H]4[C@@]5(C)CC[C@H](O)[C@](C)(CO)[C@@H]5CC[C@]43C)[C@@H]2C1
9.55	CC1(C)CC[C@]2(C(=O)O[C@@H]3O[C@H](CO)[C@@H](O)[C@H](O)[C@H]3O)CC[C@]3(C)C(=CC[C@@H]4[C@@]5(C)CC[C@H](O)[C@@](C)(CO)[C@@H]5CC[C@]43C)[C@@H]2C1 [CHEBI:67947]
10.02	CC1(C)CC[C@]2(C(=O)O)CC[C@]3(C)C(=CC[C@@H]4[C@@]5(C)CC[C@H](O[C@@H]6O[C@H](CO)[C@@H](O)[C@H](O)[C@H]6O)C(C)(C)[C@@H]5CC[C@]43C)[C@@H]2C1 [Vitalboside A]

Continued, compound first:

Structure (SMILES)	pIC50
COc1cc(/C=C/C(=O)CC(=O)/C=C/c2ccc(O)c(OC)c2)ccc1O [CHEBI:3962]	7.89
C=C(C)[C@@H]1CC[C@]2(C(=O)O[C@@H]3O[C@H](CO)[C@@H](O)[C@H](O)[C@H]3O)CC[C@]3(C)C(CC[C@@H]4[C@@]5(C)CC[C@H](O[C@@H]6O[C@H](CO)[C@@H](O)[C@H](O)[C@H]6O)C(C)(C)[C@@H]5CC[C@]43C)[C@H]12 (some centres undefined)	9.19
CC1(C)CC[C@]2(C(=O)O)[C@H](O)C[C@]3(C)C(=CC[C@@H]4[C@@]5(C)CC[C@H](O)C(C)(C)[C@@H]5CC[C@]43C)[C@@H]2C1 [CHEBI:4747]	10.27

The compounds below were run against T1, Tissue factor (assay: as §1).

pIC50	Structure (SMILES)
8.19	CC1(C)CC[C@]2(C(=O)O[C@@H]3O[C@H](CO)[C@@H](O)[C@H](O)[C@H]3O)CC[C@]3(C)C(=CC[C@@H]4[C@@]5(C)CC[C@H](O)[C@](C)(CO)[C@@H]5CC[C@]43C)[C@@H]2C1
7.80	CC1(C)CC[C@]2(C(=O)O[C@@H]3O[C@H](CO)[C@@H](O)[C@H](O)[C@H]3O)CC[C@]3(C)C(=CC[C@@H]4[C@@]5(C)CC[C@H](O[C@@H]6O[C@H](CO)[C@@H](O)[C@H](O)[C@H]6O)C(C)(C)[C@@H]5CC[C@]43C)[C@@H]2C1
8.89	CC1(C)CC[C@]2(C(=O)O)CC[C@]3(C)C(=CC[C@@H]4[C@@]5(C)CC[C@H](O)[C@](C)(CO)[C@@H]5CC[C@]43C)[C@@H]2C1
10.46	CC1(C)CC[C@]2(C(=O)O[C@@H]3O[C@H](CO)[C@@H](O)[C@H](O)[C@H]3O)CC[C@]3(C)C(=CC[C@@H]4[C@@]5(C)CC[C@H](O)C(C)(C)[C@@H]5CC[C@]43C)[C@@H]2C1 [CHEBI:67985]
8.30	CC1(C)CC[C@]2(C(=O)O)CC[C@]3(C)C(=CC[C@@H]4[C@@]5(C)CC[C@H](O)C(C)(C)[C@@H]5CC[C@]43C)[C@@H]2C1 [Oleanolic acid (OA)(Compound 1)]
9.66	CC1(C)CC[C@]2(C(=O)O)CC[C@]3(C)C(=CC[C@@H]4[C@@]5(C)CC[C@H](O)[C@@](C)(CO)[C@@H]5CC[C@]43C)[C@@H]2C1 [4-Epi-Hederagenin]
7.96	CC1(C)CC[C@]2(C(=O)O[C@@H]3O[C@H](CO)[C@@H](O)[C@H](O)[C@H]3O)[C@H](O)C[C@]3(C)C(=CC[C@@H]4[C@@]5(C)CC[C@H](O)C(C)(C)[C@@H]5CC[C@]43C)[C@@H]2C1
10.55	C=C(C)[C@@H]1CC[C@]2(C(=O)O[C@@H]3O[C@H](CO)[C@@H](O)[C@H](O)[C@H]3O)CC[C@]3(C)C(CC[C@@H]4[C@@]5(C)CC[C@H](O)[C@@](C)(CO)[C@@H]5CC[C@]43C)[C@H]12 (some centres undefined)

Further lines, the compound ahead of its results:

Structure (SMILES)	pIC50
CC1(C)CC[C@]2(C(=O)O)CC[C@]3(C)C(=CC[C@@H]4[C@@]5(C)CCC(=O)C(C)(C)[C@@H]5CC[C@]43C)[C@@H]2C1 [Oleanonic Acid]	9.66
CC1(C)CC[C@]2(C(=O)O[C@@H]3O[C@H](CO)[C@@H](O)[C@H](O)[C@H]3O)[C@H](O)C[C@]3(C)C(=CC[C@@H]4[C@@]5(C)CC[C@H](O[C@@H]6O[C@H](CO)[C@@H](O)[C@H](O)[C@H]6O)C(C)(C)[C@@H]5CC[C@]43C)[C@@H]2C1	8.02
C=C(C)[C@@H]1CC[C@]2(C(=O)O)CC[C@]3(C)C(CC[C@@H]4[C@@]5(C)CC[C@H](O)[C@@](C)(CO)[C@@H]5CC[C@]43C)[C@H]12 (some centres undefined)	9.66
C=C(C)[C@@H]1CC[C@]2(C(=O)O[C@@H]3O[C@H](CO)[C@@H](O)[C@H](O)[C@H]3O)CC[C@]3(C)C(CC[C@@H]4[C@@]5(C)CC[C@H](O)C(C)(C)[C@@H]5CC[C@]43C)[C@H]12 (some centres undefined)	10.11
CC1(C)CC[C@]2(C(=O)OCc3ccccc3)CC[C@]3(C)C(=CC[C@@H]4[C@@]5(C)CC[C@H](O)C(C)(C)[C@@H]5CC[C@]43C)[C@@H]2C1 [benzyl (4aS,6aS,6bR,8aR,10S,12aR,12bR,14bS)-10-hydroxy-2,2,6a,6b,9,9,12a-heptamethyl-1,3,4,5,6,7,8,8a,10,11,12,12b,13,14b-tetradecahydropicene-4a-carboxylate (Compound 4)]	8.33
